This is an account of results in patent US8591966B2, “Composition containing oils of chamomile flower and black cumin with reduced endotoxins” (Insignion Holdings Limited, priority 2007, dated 2013).

The structures appear in SMILES notation. Like-named read-outs stand apart in the source and are kept apart here.

Type in all cases: cell-based
Assay [1] addresses T1, 5-LOX (Homo sapiens, UniProt P09917).
T1 construct: endogenous in cells; host or cells: HL-60 (human myeloid leukemia, DSMZ ACC 3), differentiated with DMSO
T1 sequence (P09917 1-674): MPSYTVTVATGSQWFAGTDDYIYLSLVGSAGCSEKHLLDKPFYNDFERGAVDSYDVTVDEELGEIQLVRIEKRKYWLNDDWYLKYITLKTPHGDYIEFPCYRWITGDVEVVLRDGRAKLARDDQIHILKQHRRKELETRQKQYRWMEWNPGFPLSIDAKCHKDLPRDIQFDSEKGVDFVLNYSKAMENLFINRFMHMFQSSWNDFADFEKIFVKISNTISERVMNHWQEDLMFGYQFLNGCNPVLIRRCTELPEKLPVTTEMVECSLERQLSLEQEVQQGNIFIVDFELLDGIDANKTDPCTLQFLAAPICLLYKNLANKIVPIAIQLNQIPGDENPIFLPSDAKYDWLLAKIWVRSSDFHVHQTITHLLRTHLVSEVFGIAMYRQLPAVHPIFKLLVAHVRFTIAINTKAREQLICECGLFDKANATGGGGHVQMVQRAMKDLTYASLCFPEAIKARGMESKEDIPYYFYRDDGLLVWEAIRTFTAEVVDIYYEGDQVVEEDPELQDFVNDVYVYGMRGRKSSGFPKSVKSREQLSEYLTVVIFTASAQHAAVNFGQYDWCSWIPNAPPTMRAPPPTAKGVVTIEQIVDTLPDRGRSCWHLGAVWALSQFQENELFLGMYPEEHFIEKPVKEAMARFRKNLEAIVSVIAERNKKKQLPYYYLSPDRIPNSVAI
The experiment in a line: 5-LOX inhibition assay (LTB4) in differentiated HL-60 granulocytes. Conditions: reference listed under the 5-LOX IC50 table. As for the experimental part:
Human HL-60 cells (myeloid leukemia, DSMZ No ACC 3) were kept at 37° C. in a humidified atmosphere with 5% CO2 and cultured in complete RPMI1640 medium supplemented with 10% fetal calf serum and 1% (v/v) penicillin/streptomycin solution. Cells were differentiated for 6 to 8 days with DMSO (1.2% v/v). The 5-LOX activity assay was carried out as described by Bennet et al. [ref: 2]. Briefly, differentiated cells were harvested, suspended in PBS containing Ca^2+ (1 mM) and glucose (1 mM) and distributed into a 96-well microtiter plate (1×10^6 cells/well).
After preincubation with sample or vehicle for 15 min at room temperature the reaction was started by adding calcium ionophore A 23187 (5 uM) and arachidonic acid (10 uM). All values are final concentrations. […] After neutralization with 50 μl PBS and centrifugation (340×g) for 10 min the LTB4 concentration in the supernatant was determined.
Effects of samples and reference compound [ref: 3] on the activity of 5-LOX were measured by determining the quantity of leukotriene B4 produced under assay conditions. The quantification of leukotriene B4 was performed with Enzyme Immuno Assay (EIA) Kit from Cayman No 520111 (LTB4). The optical densities were measured at wavelength=415 nm. The quantities were calculated using a standard curve of at least 5 different concentrations. Sample points were measured as duplicates. […]

Assay [2] relates to glioblastoma cells U-87 MG. The experiment in a line: DNA synthesis (3H-thymidine incorporation) in U-87MG. The note with it: Homo sapiens, 48 h incubation. As to the method:
(§1) ^3H-Thymidine incorporation: DU145 and U-87MG cells were harvested by trypsinisation and seeded at 10,000 cells/well in a 96 well plate. The cells were incubated with the samples at the required concentrations for 24 hrs and/or 48 hrs at 37° C. and 5% CO2. The cells were pulsed with ^3H-Thymidine (1 μCi/ml) (Perkin Elmer) for 24 hours. After which, they were washed with PBS and fixed twice with methanol for 5 min. The protein was precipitated by 0.3N TCA. After a washing step 150 μl 0.3N NaOH was added for 15 min to lyse the cells. Back ground controls were measured with the samples without cells.
(§2) To detect the incorporated ^3H-Thymidine for the DNA synthesis the samples were transferred in scintillation tubes with scintillation cocktail. The quantification was performed in a Tri-Carb 1900 TR liquid scintillation counter (Packard, USA).
(§3) The effect of several concentrations of samples was measured by determining amount of radiolabel (dpm) under the assay conditions. Dose related values were expressed as a percentage of the positive control values. Sample points were measured as quadruplicates, errors are expressed as standard deviations.
Background: Uptake of a labelled nucleoside into DNA is a usual measure of proliferation.

Assay [3] relates to prostate cancer cells DU145. The experiment in a line: DNA synthesis (3H-thymidine incorporation) in DU145. Conditions: Homo sapiens, DU-145. As for the experimental part:
as §1, §2, §3

In general, IC50 refers to the concentration needed to halve the response being measured.

`C[C@@H]1C[C@H]2[C@@H]3CCC4=CC(=O)C=C[C@]4(C)[C@@]3(F)[C@@H](O)C[C@]2(C)[C@@]1(O)C(=O)CO` [Dexamethasone] had an IC50 in assay [1] of 0.28 nM.
Turning to `CC[C@@]1(O)C(=O)OCc2c1cc1n(c2=O)Cc2cc3ccccc3nc2-1` [Camptothecin], the IC50 in assay [2] came out at 3.32 nM; in assay [3] (DU145, 24 h incubation, read-out: IC50 (nM) on DNA synthesis, 24 h incubation), 152 nM; in assay [3] (DU145, 48 h incubation, read-out: IC50 (nM) on DNA synthesis, 48 h incubation), 7.5 nM.
